According to patent publication US20260297081A1, “COMPOUNDS AND METHODS OF TREATING CANCERS” (Cullgen Inc., priority 2023, published 2026):
Where two headings read alike, the source gives them in different places.

Columns and labels:
MCF7 cells = experiment: Anti-proliferation (viability) of MCF7 cells (Table 7, FIG. 2B); format: cell-based; details: 3-6 days, 10-point serial dilution, read-out: GI IC50 in MCF-7
CDK4 = CDK4 (Homo sapiens, UniProt P11802+Q16531); experiment: CDK4 percentage degradation in Calu-1 cells (Table 6); format: cell-based; parameters: Cells that express cyclin D1-3 and CDK4/6 proteins were treated with heterobifunctional compounds; endogenous in cells; host or cells: Calu-1; details: 16 hours; for inhibition at 0.04 µM: 40 nM; for inhibition at 0.2 µM: 200 nM
Sequence of CDK4 (P11802 2-303 limits assumed): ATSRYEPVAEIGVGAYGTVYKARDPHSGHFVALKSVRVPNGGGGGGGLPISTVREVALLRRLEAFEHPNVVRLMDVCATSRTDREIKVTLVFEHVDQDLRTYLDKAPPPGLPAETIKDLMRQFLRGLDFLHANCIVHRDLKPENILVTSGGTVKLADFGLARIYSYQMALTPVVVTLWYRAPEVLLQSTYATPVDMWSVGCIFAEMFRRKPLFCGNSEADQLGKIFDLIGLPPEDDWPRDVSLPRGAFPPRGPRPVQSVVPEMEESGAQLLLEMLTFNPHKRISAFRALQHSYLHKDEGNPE
Sequence of CDK4 (P24385 whole entry partner): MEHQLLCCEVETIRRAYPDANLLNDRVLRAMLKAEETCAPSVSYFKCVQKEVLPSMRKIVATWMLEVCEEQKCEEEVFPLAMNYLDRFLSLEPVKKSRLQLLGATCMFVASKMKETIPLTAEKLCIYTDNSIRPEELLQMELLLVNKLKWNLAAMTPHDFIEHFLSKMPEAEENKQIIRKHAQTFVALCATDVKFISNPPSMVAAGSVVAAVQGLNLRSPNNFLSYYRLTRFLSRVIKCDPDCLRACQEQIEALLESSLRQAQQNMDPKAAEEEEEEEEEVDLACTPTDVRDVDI
Sequence of CDK4 (Q16531 2-1140 limits assumed): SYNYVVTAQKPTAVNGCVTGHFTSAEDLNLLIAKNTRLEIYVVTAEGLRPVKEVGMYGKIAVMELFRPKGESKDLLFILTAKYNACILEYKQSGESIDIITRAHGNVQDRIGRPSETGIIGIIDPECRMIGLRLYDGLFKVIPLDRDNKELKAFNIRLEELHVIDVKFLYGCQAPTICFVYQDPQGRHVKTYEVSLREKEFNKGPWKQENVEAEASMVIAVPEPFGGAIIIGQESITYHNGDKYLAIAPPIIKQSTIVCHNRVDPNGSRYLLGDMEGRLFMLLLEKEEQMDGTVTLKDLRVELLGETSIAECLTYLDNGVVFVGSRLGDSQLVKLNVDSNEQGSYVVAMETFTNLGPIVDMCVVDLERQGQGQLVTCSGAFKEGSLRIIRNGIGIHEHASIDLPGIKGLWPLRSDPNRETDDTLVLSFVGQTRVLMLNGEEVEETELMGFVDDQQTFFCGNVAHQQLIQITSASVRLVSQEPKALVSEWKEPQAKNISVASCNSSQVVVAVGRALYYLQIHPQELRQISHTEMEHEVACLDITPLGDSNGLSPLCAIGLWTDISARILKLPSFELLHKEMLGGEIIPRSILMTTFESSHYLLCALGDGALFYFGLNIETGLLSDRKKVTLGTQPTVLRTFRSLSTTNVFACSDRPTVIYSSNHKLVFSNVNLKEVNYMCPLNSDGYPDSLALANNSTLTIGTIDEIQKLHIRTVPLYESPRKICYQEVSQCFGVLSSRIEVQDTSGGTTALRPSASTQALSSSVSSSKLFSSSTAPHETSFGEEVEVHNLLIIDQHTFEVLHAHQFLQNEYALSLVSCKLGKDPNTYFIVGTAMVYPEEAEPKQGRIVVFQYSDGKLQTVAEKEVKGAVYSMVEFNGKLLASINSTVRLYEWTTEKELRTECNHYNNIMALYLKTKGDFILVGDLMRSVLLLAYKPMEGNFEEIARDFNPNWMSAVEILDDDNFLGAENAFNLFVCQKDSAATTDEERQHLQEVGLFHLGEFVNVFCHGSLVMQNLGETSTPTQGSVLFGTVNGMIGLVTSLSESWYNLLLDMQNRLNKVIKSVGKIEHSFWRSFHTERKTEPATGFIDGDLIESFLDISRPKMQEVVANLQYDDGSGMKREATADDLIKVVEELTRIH
Method in brief: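 Calu-1 cells exposed to heterobifunctional compounds at 40 nM or 200 nM for 16 h. Cyclin D1 and CDK4 levels measured by Western blot of RIPA lysates (BCA-normalised loading), bands quantified by densitometry and expressed as percentage degradation.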

| SMILES | IC50 (MCF7 cells; Homo sapiens, MCF7, MCF7 cells) [nM] | inhibition at 0.04 µM (CDK4) [%] | inhibition at 0.2 µM (CDK4) [%] | IC50 (MCF7 cells; MCF7 cells) [nM] |
| --- | --- | --- | --- | --- |
| CNc1ccc(C(=O)Nc2ccc(N(C)C)nn2)c(NC2CC(Cn3cc(CN4CCN(c5ccc(Nc6ncc7c(C)c(C(C)=O)c(=O)n(C8CCCC8)c7n6)nc5)CC4)nn3)C2)n1 (stereo not shown) [CPD-202, 2-((3-((4-((4-(6-((6-acetyl-8-cyclopentyl-5-methyl-7-oxo-7,8-dihydropyrido[2,3-d]pyrimidin-2-yl)amino)pyridin-3-yl)piperazin-1-yl)methyl)-1H-1,2,3-triazol-1-yl)methyl)cyclobutyl)amino)-N-(6-(dimethylamino)pyridazin-3-yl)-6-(methylamino)nicotinamide] | < 50 | 50 to 80 | 50 to 80 | – |
| CNc1ccc(C(=O)Nc2ccc(N(C)C)nn2)c(NC2CCN(C(=O)CCN3CCN(c4ccc(Nc5ncc6c(C)c(C(C)=O)c(=O)n(C7CCCC7)c6n5)nc4)CC3)CC2)n1 [CPD-203, 2-((1-(3-(4-(6-((6-acetyl-8-cyclopentyl-5-methyl-7-oxo-7,8-dihydropyrido[2,3-d]pyrimidin-2-yl)amino)pyridin-3-yl)piperazin-1-yl)propanoyl)piperidin-4-yl)amino)-N-(6-(dimethylamino)pyridazin-3-yl)-6-(methylamino)nicotinamide] | < 50 | 50 to 80 | 50 to 80 | – |
| CC(=O)c1c(C)c2cnc(Nc3ccc(N4CCN(CC(=O)NCC5CC(Nc6nc(NC(C)C)ccc6C(=O)Nc6cc(C)n(C)n6)C5)CC4)cn3)nc2n(C2CCCC2)c1=O (stereo not shown) [CPD-205, 2-((3-((2-(4-(6-((6-acetyl-8-cyclopentyl-5-methyl-7-oxo-7,8-dihydropyrido[2,3-d]pyrimidin-2-yl)amino)pyridin-3-yl)piperazin-1-yl)acetamido)methyl)cyclobutyl)amino)-N-(1,5-dimethyl-1H-pyrazol-3-yl)-6-(isopropylamino)nicotinamide] | < 50 | 50 to 80 | 50 to 80 | – |
| CNc1ccc(C(=O)Nc2cn(C)c(C3CC3)n2)c(NC2CC(NC(=O)CN3CCN(c4ccc(Nc5ncc6c(C)c(C(C)=O)c(=O)n(C7CCCC7)c6n5)nc4)CC3)C2)n1 (stereo not shown) [CPD-217, 2-((3-(2-(4-(6-((6-acetyl-8-cyclopentyl-5-methyl-7-oxo-7,8-dihydropyrido[2,3-d]pyrimidin-2-yl)amino)pyridin-3-yl)piperazin-1-yl)acetamido)cyclobutyl)amino)-N-(2-cyclopropyl-1-methyl-1H-imidazol-4-yl)-6-(methylamino)nicotinamide] | > 100 | 50 to 80 | 50 to 80 | – |
| CNc1ccc(C(=O)Nc2ccc(F)c(C)n2)c(NC2CC3(CC(NC(=O)CN4CCN(c5ccc(Nc6ncc7c(C)c(C(C)=O)c(=O)n(C8CCCC8)c7n6)nc5)CC4)C3)C2)n1 (stereo not shown) [CPD-221, 2-((6-(2-(4-(6-((6-acetyl-8-cyclopentyl-5-methyl-7-oxo-7,8-dihydropyrido[2,3-d]pyrimidin-2-yl)amino)pyridin-3-yl)piperazin-1-yl)acetamido)spiro[3.3]heptan-2-yl)amino)-N-(5-fluoro-6-methylpyridin-2-yl)-6-(methylamino)nicotinamide] | > 100 | 50 to 80 | 50 to 80 | – |
| [2H]C([2H])([2H])Nc1ccc(C(=O)Nc2ccc(N(C)C)nn2)c(NC2CN(C(=O)CN3CCC4(CCN(c5ccc(Nc6ncc7c(C)c(C(C)=O)c(=O)n(C8CCCC8)c7n6)nc5)C4)C3)C2)n1 (stereo not shown) [CPD-442, 2-((1-(2-(7-(6-((6-acetyl-8-cyclopentyl-5-methyl-7-oxo-7,8-dihydropyrido[2,3-d]pyrimidin-2-yl)amino)pyridin-3-yl)-2,7-diazaspiro[4.4]nonan-2-yl)acetyl)azetidin-3-yl)amino)-N-(6-(dimethylamino)pyridazin-3-yl)-6-((methyl-d3)amino)nicotinamide] | > 100 | – | – | – |
| [2H]C([2H])([2H])Nc1ccc(C(=O)Nc2cn(C)c(C3CC3)n2)c(NC2CC3(C2)CN(C(=O)CN2CCC4(CCN(c5ccc(Nc6ncc7c(C)c(C(C)=O)c(=O)n(C8CCCC8)c7n6)nc5)C4)C2)C3)n1 (stereo not shown) [CPD-443, 2-((2-(2-(7-(6-((6-acetyl-8-cyclopentyl-5-methyl-7-oxo-7,8-dihydropyrido[2,3-d]pyrimidin-2-yl)amino)pyridin-3-yl)-2,7-diazaspiro[4.4]nonan-2-yl)acetyl)-2-azaspiro[3.3]heptan-6-yl)amino)-N-(2-cyclopropyl-1-methyl-1H-imidazol-4-yl)-6-((methyl-d3)amino)nicotinamide] | < 50 | – | – | – |
| CC(=O)c1c(C)c2cnc(Nc3ccc(N4CCC5(CCN(CC(=O)N6CC7(CC(Nc8nc(NC(C)C)ccc8C(=O)Nc8cn(C)c(C9CC9)n8)C7)C6)C5)C4)cn3)nc2n(C2CCCC2)c1=O (stereo not shown) [CPD-444, 2-((2-(2-(7-(6-((6-acetyl-8-cyclopentyl-5-methyl-7-oxo-7,8-dihydropyrido[2,3-d]pyrimidin-2-yl)amino)pyridin-3-yl)-2,7-diazaspiro[4.4]nonan-2-yl)acetyl)-2-azaspiro[3.3]heptan-6-yl)amino)-N-(2-cyclopropyl-1-methyl-1H-imidazol-4-yl)-6-(isopropylamino)nicotinamide] | < 50 | – | – | – |
| [2H]C([2H])([2H])Nc1ccc(C(=O)Nc2ccc(N(C)C)nn2)c(NC2CC(CNC(=O)CN3CCC4(CCN(c5ccc(Nc6ncc7c(C)c(C(C)=O)c(=O)n(C8CCCC8)c7n6)nc5)C4)C3)C2)n1 (stereo not shown) [CPD-445, 2-((3-((2-(7-(6-((6-acetyl-8-cyclopentyl-5-methyl-7-oxo-7,8-dihydropyrido[2,3-d]pyrimidin-2-yl)amino)pyridin-3-yl)-2,7-diazaspiro[4.4]nonan-2-yl)acetamido)methyl)cyclobutyl)amino)-N-(6-(dimethylamino)pyridazin-3-yl)-6-((methyl-d3)amino)nicotinamide] | < 50 | – | – | – |
| [2H]C([2H])([2H])Nc1ccc(C(=O)Nc2ccc(N(C)C)nn2)c(NC2CC3(CC(NC(=O)CN4CCC5(CCN(c6ccc(Nc7ncc8c(C)c(C(C)=O)c(=O)n(C9CCCC9)c8n7)nc6)C5)C4)C3)C2)n1 (stereo not shown) [CPD-449, 2-((6-(2-(7-(6-((6-acetyl-8-cyclopentyl-5-methyl-7-oxo-7,8-dihydropyrido[2,3-d]pyrimidin-2-yl)amino)pyridin-3-yl)-2,7-diazaspiro[4.4]nonan-2-yl)acetamido)spiro[3.3]heptan-2-yl)amino)-N-(6-(dimethylamino)pyridazin-3-yl)-6-((methyl-d3)amino)nicotinamide] | < 50 | – | – | – |
| [2H]C([2H])([2H])Nc1ccc(C(=O)Nc2ccc(N(C)C)nn2)c(NC2CC(NC(=O)CN3CCC4(CCN(c5ccc(Nc6ncc7c(C)c(C(C)=O)c(=O)n(C8CCCC8)c7n6)nc5)C4)C3)C2)n1 (stereo not shown) [CPD-450, 2-((3-(2-(7-(6-((6-acetyl-8-cyclopentyl-5-methyl-7-oxo-7,8-dihydropyrido[2,3-d]pyrimidin-2-yl)amino)pyridin-3-yl)-2,7-diazaspiro[4.4]nonan-2-yl)acetamido)cyclobutyl)amino)-N-(6-(dimethylamino)pyridazin-3-yl)-6-((methyl-d3)amino)nicotinamide] | < 50 | – | – | – |
| CC(=O)c1c(C)c2cnc(Nc3ccc(N4CCC5(CC4)CC5C(=O)NC4CC5(C4)CC(Nc4nc(NC(C)C)ccc4C(=O)Nc4cc(C)n(C)n4)C5)cn3)nc2n(C2CCCC2)c1=O (stereo not shown) [CPD-451, 6-(6-((6-acetyl-8-cyclopentyl-5-methyl-7-oxo-7,8-dihydropyrido[2,3-d]pyrimidin-2-yl)amino)pyridin-3-yl)-N-(6-((3-((1,5-dimethyl-1H-pyrazol-3-yl)carbamoyl)-6-(isopropylamino)pyridin-2-yl)amino)spiro[3.3]heptan-2-yl)-6-azaspiro[2.5]octane-1-carboxamide] | < 50 | – | – | – |
| CC(=O)c1c(C)c2cnc(Nc3ccc(N4CCN(CC(=O)NC5CC6(C5)CC(Nc5nc(NC(C)C)ccc5C(=O)Nc5cc(C)n(C7CC7)n5)C6)CC4)cn3)nc2n(C2CCCC2)c1=O (stereo not shown) [CPD-452, 2-((6-(2-(4-(6-((6-acetyl-8-cyclopentyl-5-methyl-7-oxo-7,8-dihydropyrido[2,3-d]pyrimidin-2-yl)amino)pyridin-3-yl)piperazin-1-yl)acetamido)spiro[3.31]heptan-2-yl)amino)-N-(1-cyclopropyl-5-methyl-1H-pyrazol-3-yl)-6-(isopropylamino)nicotinamide] | < 50 | – | – | – |
| COc1cccc(NC(=O)c2ccc(NC(C)C)nc2NC2CC3(CC(NC(=O)CN4CCN(c5ccc(Nc6ncc7c(C)c(C(C)=O)c(=O)n(C8CCCC8)c7n6)nc5)CC4)C3)C2)n1 (stereo not shown) [CPD-453, 2-((6-(2-(4-(6-((6-acetyl-8-cyclopentyl-5-methyl-7-oxo-7,8-dihydropyrido[2,3-d]pyrimidin-2-yl)amino)pyridin-3-yl)piperazin-1-yl)acetamido)spiro[3.3]heptan-2-yl)amino)-6-(isopropylamino)-N-(6-methoxypyridin-2-yl)nicotinamide] | 50 to 100 | – | – | – |
| CC(=O)c1c(C)c2cnc(Nc3ccc(N4CCN(C5CCN(C(=O)C6(O)CCC(Nc7nc(NC(C)C)ccc7C(=O)Nc7ccc(N(C)C)nn7)CC6)C5)CC4)cn3)nc2n(C2CCCC2)c1=O (stereo not drawn) [CPD-575, 2-((trans-4-(3-(4-(6-((6-acetyl-8-cyclopentyl-5-methyl-7-oxo-7,8-dihydropyrido[2,3-d]pyrimidin-2-yl)amino)pyridin-3-yl)piperazin-1-yl)pyrrolidine-1-carbonyl)-4-hydroxycyclohexyl)amino)-N-(6-(dimethylamino)pyridazin-3-yl)-6-(isopropylamino)nicotinamide] | – | – | – | > 100 |
